For one test, the system named is Lox-IMVI melanoma cell line. As to the kind of experiment: Lox-IMVI anti-proliferative assay (growth inhibition, Cell Titer-Glo). The class given is cell-based, human. The following applies: Homo sapiens; IC50 activity level in the cell-based Lox-IMVI anti-proliferative assay; read-out: Activity. Here is the method: Determination of the Growth Inhibitory Effect of Aminopurine Compounds. The Lox-IMVI melanoma cell line (Source: NCI-DCTD, catalog No. 0507283) was maintained and tested in RPMI+10% FBS. The seeding density for the cell line was optimized to ensure assay linearity in 384-well plates.
Increasing concentrations of Aminopurine Compound (0.5 nM to 10 μM) were spotted in a 10-point serial dilution fashion (3-fold dilution) in duplicate within the plate via an acoustic dispenser (EDC ATS-100) into an empty 384-well plate. The dimethyl sulfoxide (DMSO) concentration was kept constant for a final assay concentration of 0.2% DMSO. Prior to testing, cells were grown and expanded in culture flasks to provide sufficient amounts of starting material. Cells were then diluted to their desired densities and added directly to the compound-spotted 384-well plates. Cells were allowed to grow for 72 hours in 5% CO2 at 37° C. At the time when exposure of cells to compound began (t0), initial cell number was assessed via a viability assay (Cell Titer-Glo) by quantifying the level of luminescence generated by adenosine-5′-triphosphate (ATP) present in viable cells. After 72 hours, cell viability of compound-treated cells was assessed via Cell Titer-Glo Luminescent Cell Viability Assay (Promega Corporation, Madison, Wis.) and read for luminescence.
All data was normalized and represented as a percentage of the DMSO-treated control cells after 72 h. Results were expressed as a IC50 value, which is the compound concentration required to inhibit 50% of the untreated control cells during the 72 hours of treatment.
A Four Parameter Logistic Model (Sigmoidal Dose-Response Model) was used to determine the compound's IC50. y=(A+((B−A)/(1+((C/x)^D))))
wherein: • A=YMin • B=YMax • C=EC50 • D=Hill Slope • IC50 is the compound concentration when Y=50% of DMSO control • Y=Luminescence unit
All inhibition curves were processed and evaluated using XLFit and Activity Base (IDBS).
Take `NC(=O)[C@H]1CC[C@@H](n2c(Nc3cccc(F)c3F)nc3cnc(NC4CCCC4)nc32)CC1` [Example 139, (1s,4s)-4-(2-(cyclopentylamino)-8-(2,3-difluorophenylamino)-9H-purin-9-yl)cyclohexanecarboxamide]: the IC50 is more than 1 µM.
Regarding `NC(=O)[C@H]1CC[C@@H](n2c(Nc3c(F)cc(Cl)cc3F)nc3cnc(N[C@@H]4CC[C@H](O)C4)nc32)CC1` [Example 328, (1S,4s)-4-(8-(4-chloro-2,6-difluorophenylamino)-2-((1R,3S)-3-hydroxycyclopentylamino)-9H-purin-9-yl)cyclohexanecarboxamide], the IC50 was more than 1 µM.
The same measure, in the same setting: in the case of `NC(=O)[C@H]1CC[C@@H](n2c(Nc3c(Cl)cccc3Cl)nc3cnc(N[C@H]4CCC[C@@H]4O)nc32)CC1` [Example 268, (1R,4s)-4-(8-(2,6-dichlorophenylamino)-2-((1S,2S)-2-hydroxycyclopentylamino)-9H-purin-9-yl)cyclohexanecarboxamide] it was more than 1 µM; in that of `CS(=O)(=O)N1CCC(Nc2ncc3nc(Nc4c(Cl)cccc4Cl)n([C@H]4CC[C@@H](C(N)=O)CC4)c3n2)CC1` [Example 293, (1s,4s)-4-(8-(2,6-dichlorophenylamino)-2-(1-(methylsulfonyl)piperidin-4-ylamino)-9H-purin-9-yl)cyclohexanecarboxamide], more than 1 µM.
On the same count and under the same terms, in the case of `NC(=O)[C@H]1CC[C@@H](n2c(Nc3c(Cl)cc(F)cc3Cl)nc3cnc(N[C@@H]4COC[C@H]4O)nc32)CC1` [Example 315, (1S,4s)-4-(8-(2,6-dichloro-4-fluorophenylamino)-2-((3R,4S)-4-hydroxytetrahydrofuran-3-ylamino)-9H-purin-9-yl)cyclohexanecarboxamide] it was more than 1 µM; in that of `CC(C)(C)OC(=O)N1CCC[C@@H](Nc2ncc3nc(Nc4c(F)cccc4F)n([C@H]4CC[C@@H](C(N)=O)CC4)c3n2)C1` [Example 159, (R)-tert-butyl 3-(9-((1s,4S)-4-carbamoylcyclohexyl)-8-(2,6-difluorophenylamino)-9H-purin-2-ylamino)piperidine-1-carboxylate], more than 1 µM; in that of `NC(=O)[C@H]1CC[C@@H](n2c(Nc3c(F)cccc3Cl)nc3cnc(NC4CCC(F)(F)CC4)nc32)CC1` [Example 235, (1s,4s)-4-(8-(2-chloro-6-fluorophenylamino)-2-(4,4-difluorocyclohexylamino)-9H-purin-9-yl)cyclohexanecarboxamide], 0.5 to 1 µM.
The same measure, in the same setting: in the case of `N#Cc1ccc(Nc2nc3cnc(NC4CCOCC4)nc3n2[C@H]2CC[C@@H](C(N)=O)CC2)c(F)c1F` [Example 379, (1s,4s)-4-(8-(4-cyano-2,3-difluorophenylamino)-2-(tetrahydro-2H-pyran-4-ylamino)-9H-purin-9-yl)cyclohexanecarboxamide] it was more than 1 µM.
As to `NC(=O)[C@H]1CC[C@@H](n2c(Nc3c(F)ccc(Cl)c3F)nc3cnc(N[C@H]4CCC[C@@H]4O)nc32)CC1` [Example 273, (1R,4s)-4-(8-(3-chloro-2,6-difluorophenylamino)-2-((1S,2S)-2-hydroxycyclopentylamino)-9H-purin-9-yl)cyclohexanecarboxamide], the IC50 is more than 1 µM.
Still for that read-out and setting: in the case of `NC(=O)[C@H]1CC[C@@H](n2c(Nc3c(F)cc(Cl)cc3Cl)nc3cnc(NC4CCS(=O)(=O)CC4)nc32)CC1` [Example 157, (1s,4s)-4-(8-((2,4-dichloro-6-fluorophenyl)amino)-2-((1,1-dioxidotetrahydro-2H-thiopyran-4-yl)amino)-9H-purin-9-yl)cyclohexane-1-carboxamide] it was more than 1 µM.

The test is the same for the next values; noted with them: Homo sapiens; Lox-IMVI anti-proliferative assay, IC50 activity level; read-out: Activity.
As for `NC(=O)[C@H]1CC[C@@H](n2c(Nc3c(F)cc(F)cc3Cl)nc3cnc(N[C@H]4CCC[C@H](O)C4)nc32)CC1` [Example 459, (1R,4s)-4-(8-(2-chloro-4,6-difluorophenylamino)-2-((1S,3S)-3-hydroxycyclohexylamino)-9H-purin-9-yl)cyclohexanecarboxamide], the IC50 is more than 1 µM.
With `C[C@]1(C(N)=O)CC[C@@H](n2c(Nc3c(Cl)cc(Cl)cc3Cl)nc3cnc(NC4CCCC4)nc32)CC1` [Example 574, (1s,4s)-4-(2-(cyclopentylamino)-8-(2,4,6-trichlorophenylamino)-9H-purin-9-yl)-1-methylcyclohexanecarboxamide], the IC50 lay in the range of 0.25 to 0.5 µM.
On to `NC(=O)[C@H]1CC[C@@H](n2c(Nc3ccc(Cl)c(F)c3F)nc3cnc(N[C@H]4CCC[C@H](O)C4)nc32)CC1` [Example 463, (1R,4s)-4-(8-(4-chloro-2,3-difluorophenylamino)-2-((1S,3S)-3-hydroxycyclohexylamino)-9H-purin-9-yl)cyclohexanecarboxamide], for which the IC50 was more than 1 µM.
Turning to `N#Cc1cc(Cl)c(Nc2nc3cnc(N[C@H]4CCCC[C@H](O)C4)nc3n2[C@H]2CC[C@@H](C(N)=O)CC2)c(Cl)c1` [Example 449, (1R,4s)-4-(8-(2,6-dichloro-4-cyanophenylamino)-2-((1S,3S)-3-hydroxycycloheptylamino)-9H-purin-9-yl)cyclohexanecarboxamide], the IC50 was more than 1 µM.
On the same count and under the same terms, in the case of `C[C@@H](CO)Nc1ncc2nc(Nc3c(Cl)cc(Cl)cc3Cl)n([C@H]3CC[C@@](C)(C(N)=O)CC3)c2n1` [Example 549, (1R,4s)-4-(2-((S)-1-hydroxypropan-2-ylamino)-8-(2,4,6-trichlorophenylamino)-9H-purin-9-yl)-1-methylcyclohexanecarboxamide] it was less than 0.25 µM; in that of `NC(=O)[C@H]1CC[C@@H](n2c(Nc3c(F)cc(Cl)cc3Cl)nc3cnc(N[C@H]4CCCC[C@H]4O)nc32)CC1` [Example 513, (1R,4s)-4-(8-(2,4-dichloro-6-fluorophenylamino)-2-((1S,2R)-2-hydroxycyclohexylamino)-9H-purin-9-yl)cyclohexanecarboxamide], more than 1 µM.

Still in this test, the particulars now being: Homo sapiens; Lox-IMVI melanoma cell line, anti-proliferative assay; read-out: Activity (IC50 activity level).
As for `CC(C)OC(=O)N1CCC[C@@H](Nc2ncc3nc(Nc4c(F)cc(C#N)cc4F)n([C@H]4CC[C@@H](C(N)=O)CC4)c3n2)C1` [Example 771, (R)-isopropyl 3-(9-((1s,4S)-4-carbamoylcyclohexyl)-8-(4-cyano-2,6-difluorophenylamino)-9H-purin-2-ylamino)piperidine-1-carboxylate], the IC50 is more than 1 µM.
With `C[C@]1(C(N)=O)CC[C@@H](n2c(Nc3c(Cl)cc(F)cc3Cl)nc3cnc(N[C@@H]4CCC[C@@H](O)C4)nc32)CC1` [Example 621, (1S,4s)-4-(8-(2,6-dichloro-4-fluorophenylamino)-2-((1R,3R)-3-hydroxycyclohexylamino)-9H-purin-9-yl)-1-methylcyclohexanecarboxamide], the IC50 was more than 1 µM.
The same measure, in the same setting: in the case of `N#Cc1cc(Cl)c(Nc2nc3cnc(NC4CCC(c5ncno5)CC4)nc3n2[C@H]2CC[C@@H](C(N)=O)CC2)c(Cl)c1` (some centres unmarked) [Example 681, (1s,4s)-4-(2-(4-(1,2,4-oxadiazol-5-yl)cyclohexylamino)-8-(2,6-dichloro-4-cyanophenylamino)-9H-purin-9-yl)cyclohexanecarboxamide] it was more than 1 µM.

Staying with this test, now noted: Lox-IMVI anti-proliferative assay, IC50 activity level; read-out: Activity.
For “(R)-methyl 3-(9-((1s,4S)-4- carbamoylcyclohexyl)-8-(2,3,4- trifluorophenylamino)-9H-purin-2- ylamino)piperidine-1-carboxylate [Example 414]”, the IC50 was more than 1 µM.

Source of the values: US11590139B2, “Substituted aminopurine compounds, compositions thereof, and methods of treatment therewith” (Signal Pharmaceuticals, LLC, priority 2014, dated 2023).
